Our source for the IC50 values is ChEMBL document CHEMBL1817607, “Synthesis and antiplasmodial activity of bicyclic dioxanes as simplified dihydroplakortin analogues” (J Med Chem, 2011).

Assay [1] has as its system Plasmodium falciparum. Nature of the assay: Antiplasmodial activity against chloroquine-sensitive Plasmodium falciparum D10 infected in human type A-positive RBC assessed as inhibition of parasite LDH activity after 72 hrs by spectrophotometrically. The format is functional, organism-based. To be noted: D10, 72 h.
Assay [2] relates to Plasmodium falciparum. Nature of the assay: Antiplasmodial activity against chloroquine-resistant Plasmodium falciparum W2 infected in human type A-positive RBC assessed as inhibition of parasite LDH activity after 72 hrs by spectrophotometric analysis. In kind it is functional, organism-based. Particulars: W2, 72 h.

A value given as a limit tells only on which side of the number the result lay.

In the case of `CCCCCC1(C)C[C@]2(C)CCO[C@@H]2OO1` (mixture of isomers), the 50% inhibitory concentration (IC50) came to 2.9 µM in the assay on Plasmodium falciparum [1] and 1.5 µM in the assay with Plasmodium falciparum [2].

As to `CCCCC1(C)C[C@]2(C)CCO[C@@H]2OO1` (mixture of isomers), the IC50 with Plasmodium falciparum [1] worked out at 2.9 µM; in the assay with Plasmodium falciparum [2] it was 1.4 µM.

With `C[C@@]12CCO[C@@H]1OO[C@@H](c1ccccc1)C2` (racemic), the concentration for half-maximal inhibition (IC50) in the assay with Plasmodium falciparum [1] and in the assay on Plasmodium falciparum [2] was greater than 20 µM in each case.

Consider `CC(C)C[C@@]12CCO[C@@H]1OOC(C)(C)C2` (racemic), for which the IC50 with Plasmodium falciparum [1] and with Plasmodium falciparum [2] was greater than 10 µM in each case.

Regarding `CC[C@@H]1CC(C)(C)OO[C@@H]1[C@H](O)COC(C)=O`, the IC50 in the assay on Plasmodium falciparum [1] and with Plasmodium falciparum [2] was greater than 10 µM in each case.

For `CC(C)Cc1ccccc1[C@H]1C[C@]2(C)CCO[C@@H]2OO1` (racemic), the figures for the concentration for half-maximal inhibition (IC50) with Plasmodium falciparum [1] and with Plasmodium falciparum [2] were 13 µM and 5.7 µM, respectively.

Regarding `Cc1ccccc1[C@H]1C[C@]2(C)CCO[C@@H]2OO1` (racemic), the values for the IC50 in the assay with Plasmodium falciparum [1] and in the assay with Plasmodium falciparum [2] were greater than 20 µM and 11 µM, respectively.

Regarding `CCC(CC)C[C@]1(C)C[C@@H](CC)[C@@H](CC(=O)OC)OO1`, the 50% inhibitory concentration (IC50) amounted to 2.4 µM in the assay on Plasmodium falciparum [1] and 0.87 µM in the assay with Plasmodium falciparum [2].

As to `CC1(CC2C3CC4CC(C3)CC2C4)C[C@]2(C)CCO[C@@H]2OO1` (mixture of isomers), the concentration for half-maximal inhibition (IC50) in the assay with Plasmodium falciparum [1] amounted to 0.23 µM; in the assay on Plasmodium falciparum [2] it was 0.15 µM.

On to `CCCCC1(C)C[C@@H]2CCO[C@@H]2OO1` (mixture of isomers), for which the IC50 with Plasmodium falciparum [1] and in the assay on Plasmodium falciparum [2] was greater than 10 µM each time.

As to `CC[C@@H]1CC(C)(C)OO[C@@H]1[C@H](O)CO`, the IC50 with Plasmodium falciparum [1] and in the assay with Plasmodium falciparum [2] was greater than 10 µM throughout.

Turning to `CCC(CC)C[C@]1(C)C[C@@H](CC)[C@@H]([C@H](O)CO)OO1`, the IC50 with Plasmodium falciparum [1] is 2.4 µM; in the assay on Plasmodium falciparum [2] it was 1.3 µM.

Regarding `CCC(CC)C[C@@]1(C)C[C@@H](CC)[C@@H]([C@H](O)CO)OO1`, the half-inhibitory concentration (IC50) was 1.2 µM with Plasmodium falciparum [1] and 0.84 µM in the assay on Plasmodium falciparum [2].

Consider `CC(C)c1ccccc1[C@H]1C[C@]2(C)CCO[C@@H]2OO1` (racemic), for which the half-maximal inhibitory concentration (IC50) in the assay on Plasmodium falciparum [1] amounted to 8.3 µM; in the assay on Plasmodium falciparum [2], 4.6 µM.

Regarding `CCc1ccccc1[C@@H]1C[C@]2(C)CCO[C@@H]2OO1` (racemic), the IC50 in the assay with Plasmodium falciparum [1] and in the assay with Plasmodium falciparum [2] was greater than 20 µM in each case.

With `Cc1ccccc1[C@@H]1C[C@]2(C)CCO[C@@H]2OO1` (racemic), the IC50 in the assay with Plasmodium falciparum [1] and with Plasmodium falciparum [2] was greater than 20 µM each time.

Turning to `CC[C@@]12CCO[C@@H]1OOC(C)(C)C2` (racemic), the IC50 in the assay on Plasmodium falciparum [1] and with Plasmodium falciparum [2] was greater than 10 µM in each case.

With `C[C@@]12CCO[C@@H]1OO[C@H](c1ccccc1)C2` (racemic), the IC50 in the assay with Plasmodium falciparum [1] and with Plasmodium falciparum [2] was greater than 20 µM in each case.

As for `CC1(C)C[C@@H]2CCO[C@@H]2OO1` (relative stereo), the IC50 in the assay on Plasmodium falciparum [1] and in the assay with Plasmodium falciparum [2] was greater than 10 µM each time.

As to `CCc1ccccc1[C@H]1C[C@]2(C)CCO[C@@H]2OO1` (racemic), the figures for the 50% inhibitory concentration (IC50) with Plasmodium falciparum [1] and in the assay on Plasmodium falciparum [2] were 15 µM and 7.7 µM, respectively.

Turning to `CC1(CC2CCCC2)C[C@]2(C)CCO[C@@H]2OO1` (mixture of isomers), the figures for the half-inhibitory concentration (IC50) with Plasmodium falciparum [1] and with Plasmodium falciparum [2] were 0.55 µM and 0.34 µM, respectively.

In the case of `CC1(C)C[C@]2(C)CCO[C@@H]2OO1` (racemic), the IC50 in the assay with Plasmodium falciparum [1] and in the assay on Plasmodium falciparum [2] was greater than 10 µM throughout.

Turning to `CCC(CC)CC1(C)C[C@]2(C)CCO[C@@H]2OO1` (mixture of isomers), the values for the 50% inhibitory concentration (IC50) in the assay on Plasmodium falciparum [1] and with Plasmodium falciparum [2] were 0.76 µM and 0.39 µM, respectively.

With `CC1(CC2CCCCC2)C[C@]2(C)CCO[C@@H]2OO1` (mixture of isomers), the half-inhibitory concentration (IC50) came out at 0.49 µM in the assay on Plasmodium falciparum [1] and 0.36 µM with Plasmodium falciparum [2].

As for `CCC(CC)C[C@@]1(C)C[C@@H](CC)[C@@H](CC(=O)OC)OO1`, the 50% inhibitory concentration (IC50) in the assay on Plasmodium falciparum [1] turned out to be 0.89 µM; with Plasmodium falciparum [2], 0.64 µM.

With `CCCCCC1(C)C[C@@H]2CCO[C@@H]2OO1` (mixture of isomers), the IC50 in the assay on Plasmodium falciparum [1] and in the assay with Plasmodium falciparum [2] was greater than 10 µM each time.

Turning to `CCC(CC)CC1(C)C[C@@H]2CCO[C@@H]2OO1` (mixture of isomers), the IC50 is greater than 10 µM with Plasmodium falciparum [1] and 8.6 µM with Plasmodium falciparum [2].

The term IC50 denotes the midpoint of a concentration-inhibition curve.
